Source: patent US9999650B2, “Peptide and peptidomimetic inhibitors” (Ra Pharmaceuticals, Inc., priority 2012, dated 2018)
Numbered stars: 1 amine (or outer) side, 2 acyl side, 3 side chain; on linkers, the order of the positions; unused ones are H or OH. Bridge positions count the residues as written; N and C are the ends. Square brackets hold non-standard residues; d marks the D form. Peptide text beside a SMILES is read from it. * marks the point of attachment. Trp(7-aza) = N[C@@H](Cc1c[nH]c2ncccc12)C(=O)O; NMeW = CN[C@@H](Cc1c[nH]c2ccccc12)C(=O)O; X1 = O=C(C(N[*:1])C1CCc2ccccc2C1)[*:2]; X6 = Nc1ccc(CCC(N[*:1])C(=O)[*:2])cn1; X3 = O=C(C(Cc1ccc(Br)s1)N[*:1])[*:2]; mXylylene = c1cc(C[*:1])cc(C[*:2])c1; X2 = O=C(Cc1cccc(C[*:2])c1)[*:1]; Gly(cPr) = N[C@H](C(=O)O)C1CC1; X8 = CC(C)(C)[C@H](N*)c1ccccn1; Chg = N[C@H](C(=O)O)C1CCCCC1; Phg = N[C@H](C(=O)O)c1ccccc1; Tle = CC(C)(C)[C@H](N)C(=O)O; NMeS = CN[C@@H](CO)C(=O)O; NMeA = CN[C@@H](C)C(=O)O; Nle = CCCC[C@H](N)C(=O)O; Ac5c = NC1(C(=O)O)CCCC1; Nva = CCC[C@H](N)C(=O)O; Thp = NC1(C(=O)O)CCOCC1; Aib = CC(C)(N)C(=O)O; Mpa = O=C(O)CCS

Target: T1, human plasma kallikrein (Homo sapiens, UniProt P03952)
T1 construct: purchased Enzyme Research Laboratories HPKa 1303
Experiment: Enzyme inhibition assay (fluorogenic substrate H-Pro-Phe-Arg-AMC)
Type: biochemical
Details: Kallikrein inhibitory activity; 1 nM activated human kallikrein, 500 μM H-Pro-Phe-Arg-AMC, 1 hour room temperature; read-out: Avg. IC50
Procedure: Activated human plasma kallikrein (Enzyme Research Laboratories, HPKa 1303) was reacted with H-Pro-Phe-Arg-7-amido-4-methylcoumarin (H-Pro-Pre-Arg-AMC) (a fluorogenic substrate for plasma as well as pancreatic and urinary kallikreins; Bachem I-1295) and candidate inhibitory peptides to determine the IC50 of the inhibitor.
Ten 8-fold serial dilutions of peptides (10 mM DMSO stocks) were performed in DMSO and then added to TCNB (50 mM Tris-HCl pH 7.2, 150 mM NaCl, 10 mM CaCl2, 0.05% Brij-35) and sonicated. 50 μL of the peptide dilutions were added to microtitre plates (96 well, black non-binding surface, Corning, 3650) and incubated for 5 minutes at room temperature with 4 nM activated human kallikrein (final concentration after addition of fluorogenic substrate: 1 nM). The samples were then incubated for 1 hour at room temperature with 2 mM H-Pro-Phe-Arg-AMC (final concentration 500 μM). Relative Fluorescence Units (RFU) were measured at excitation/emission 360 nm/460 nm by a SpectraMax M3.

T1 sequence (P03952 20-390 limits assumed): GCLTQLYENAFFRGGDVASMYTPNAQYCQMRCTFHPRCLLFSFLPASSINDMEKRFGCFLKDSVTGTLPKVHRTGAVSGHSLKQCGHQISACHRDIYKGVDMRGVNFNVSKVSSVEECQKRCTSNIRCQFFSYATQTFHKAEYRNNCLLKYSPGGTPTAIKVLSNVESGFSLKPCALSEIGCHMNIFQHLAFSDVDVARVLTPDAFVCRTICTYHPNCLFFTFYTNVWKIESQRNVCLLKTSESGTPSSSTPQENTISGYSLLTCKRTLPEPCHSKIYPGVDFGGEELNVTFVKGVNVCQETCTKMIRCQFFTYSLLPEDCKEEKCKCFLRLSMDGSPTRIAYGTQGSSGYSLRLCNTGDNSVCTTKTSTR
T1 sequence (P03952 391-638 limits assumed): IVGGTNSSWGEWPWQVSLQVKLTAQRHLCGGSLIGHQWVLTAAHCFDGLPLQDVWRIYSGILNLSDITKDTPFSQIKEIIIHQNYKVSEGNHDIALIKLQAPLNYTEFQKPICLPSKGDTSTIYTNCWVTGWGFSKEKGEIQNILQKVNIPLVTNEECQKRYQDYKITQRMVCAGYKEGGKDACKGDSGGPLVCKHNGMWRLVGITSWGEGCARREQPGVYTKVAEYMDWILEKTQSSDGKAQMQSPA

Molecule | IC50 [nM]
CC(C)(C)[C@H](NC(=O)[C@H](CCCNC(=N)N)NC(=O)[C@@H]1CSCc2cccc(c2)CC(=O)N[C@@H](CCC(=O)O)C(=O)N2CCC[C@H]2C(=O)N[C@@H](C2CCCCC2)C(=O)N1)C(N)=O [Compound R2264] (EP[Chg]CR[Tle]-NH2; linker N-4 via X2) | 1100
CSCC[C@H](N)C(=O)N[C@H]1CSCc2cccc(c2)CSC[C@@H](C(=O)N[C@@H](CO)C(=O)N[C@@H](CCCNC(=N)N)C(N)=O)NC(=O)[C@H](CCC(=O)O)NC(=O)[C@H]([C@@H](C)O)NC(=O)[C@H](Cc2c[nH]c3ccccc23)NC(=O)[C@@H]2CCCN2C(=O)[C@H](CO)NC(=O)[C@H](Cc2c[nH]c3ccccc23)NC(=O)[C@H](Cc2ccc(O)cc2)NC(=O)[C@H](CC(N)=O)NC1=O [Compound R2003, [mXylyl(2,11)]MCNYWSPWTECSR-NH2] (H-MCNYWSPWTECSR-NH2; linker 2-11 via mXylylene) | 3.1
CC(C)(C)[C@H](NC(=O)C(Cc1ccc(Br)s1)NC(=O)[C@@H]1CSCc2cccc(c2)CSCCC(=O)N2CCC[C@H]2C(=O)N[C@@H](c2ccccc2)C(=O)N1)C(N)=O (stereo partly drawn) [Compound R2219, [mXylyl(1,4)](des-NH2)C-P-Phg-C-ABP-Tbg-NH2] ([Mpa]P[Phg]C[X3][Tle]-NH2; linker 1-4 via mXylylene) | > 100000
CC(=O)N[C@H]1CSCc2cccc(c2)CSC[C@@H](C(=O)N[C@@H](CCCNC(=N)N)C(=O)N[C@H](C(N)=O)C2CC2)NC(=O)[C@H](c2ccccc2)NC(=O)[C@H](CO)NC(=O)[C@@H](C)NC1=O [Compound R2070, [mXylyl(1,5)]Ac-C-a-S-Phg-CR-Cppg-NH2] (Ac-C[dA]S[Phg]CR[Gly(cPr)]-NH2; linker 1-5 via mXylylene) | 118
CC(=O)N[C@@H](CS)C(=O)N[C@@H](CC(N)=O)C(=O)N[C@@H](Cc1ccc(O)cc1)C(=O)N[C@@H](Cc1c[nH]c2ccccc12)C(=O)N[C@@H](CO)C(=O)N1CCC[C@H]1C(=O)N[C@@H](Cc1c[nH]c2ccccc12)C(=O)N[C@H](C(=O)N(C)[C@@H](C)C(=O)N[C@@H](CS)C(N)=O)[C@@H](C)O [Compound R2234, Ac-CNYWSPWT-nMeA-C-NH2] (Ac-CNYWSPWT[NMeA]C-NH2) | 2.7
CC[C@H](C)[C@@H]1NC(=O)[C@H](CO)NC(=O)CSCc2cccc(c2)CSC[C@@H](C(=O)N[C@@H](CCCNC(=N)N)C(=O)N[C@H](C(N)=O)C(C)C)NC1=O [Compound R2154, [mXylyl(1,4)](2-SAc)-SICRV-NH2] | > 7930
CC(C)(C)[C@H](NC(=O)[C@H](CCCNC(=N)N)NC(=O)[C@@H]1CSCc2cccc(c2)CSCCC(=O)N2CCC[C@H]2C(=O)N[C@@H](C2CCCCC2)C(=O)N1)c1ccccn1 [Compound R2196, [mXylyl(1,4)](des-NH2)C-P-Chg-CR-(S)-2,2-dimethyl-1-(pyridin-2-yl)propan-1-amine] ([Mpa]P[Chg]CR-X8; linker 1-4 via mXylylene) | 35.6
CC(C)(C)[C@H](NC(=O)[C@H](CCCNC(=N)N)NC(=O)[C@@H]1CSCc2cccc(c2)C/C=C/CC(=O)N2CCC[C@H]2C(=O)N[C@@H](C2CCCCC2)C(=O)N1)C(N)=O [Compound R2261] | 164
CC(C)(C)[C@H](NC(=O)[C@H](CCCNC(=N)N)NC(=O)[C@@H]1CSCc2cccc(c2)CSCCC(=O)N2CCC[C@H]2C(=O)NC(C2CCc3ccccc3C2)C(=O)N1)C(N)=O (stereo partly drawn) [Compound R2267] ([Mpa]P[X1]CR[Tle]-NH2; linker 1-4 via mXylylene) | 12.8
CC(C)(C)[C@H](NC(=O)[C@H](CCCNC(=N)N)NC(=O)[C@@H]1COCc2cn(nn2)CCCCC(=O)N2CCC[C@H]2C(=O)N[C@@H](C2CCCCC2)C(=O)N1)C(N)=O [Compound R2252] | > 100000
CC[C@@H](C)[C@@H]1NC(=O)[C@@H]2CCCN2C(=O)CCCCC/C=C/C[C@@H](C(=O)N[C@@H](CCCNC(=N)N)C(=O)N[C@H](C(N)=O)C(C)C)NC1=O [Compound R2246] | > 50000
CC(C)[C@H](NC(=O)C(CCc1ccc(N)nc1)NC(=O)[C@@H]1CSCc2cccc(c2)CSCCC(=O)N2CCC[C@H]2C(=O)N[C@@H](C2CCCCC2)C(=O)N1)C(N)=O (stereo partly drawn) [Compound R2203, [mXylyl(1,4)](des-NH2)C-P-Chg-C-2-amino-4-(6-aminopyridin-3-yl)butanoic acid-V-NH2] ([Mpa]P[Chg]C[X6]V-NH2; linker 1-4 via mXylylene) | > 10000
CC[C@@H](C)[C@@H]1NC(=O)CCCCC/C=C/C[C@@H](C(=O)N[C@@H](CCCNC(=N)N)C(=O)N[C@H](C(N)=O)C(C)C)NC1=O [Compound R2242] | > 100000
CCC[C@H](N)C(=O)N[C@H]1CSCc2cccc(c2)CSC[C@@H](C(=O)N[C@@H](CCCNC(=N)N)C(=O)N[C@H](C(N)=O)C(C)(C)C)NC(=O)[C@H](c2ccccc2)NC(=O)[C@H](CO)NC(=O)[C@H](CCC(=O)O)NC1=O [Compound R2013, [mXylyl(2,6)]Nvl-CES-Phg-CR-Tbg-NH2] (H-[Nva]CES[Phg]CR[Tle]-NH2; linker 2-6 via mXylylene) | 6.8
Ac-WSPWTECSA-NH2 [Compound R2119, Ac-WSPWTECSA-NH2] | > 100000
C[C@@H]1NC(=O)C2(CCCC2)NC(=O)CCSCc2cccc(c2)CSC[C@@H](C(=O)N[C@@H](CCCNC(=N)N)C(=O)N[C@H](C(N)=O)C(C)(C)C)NC(=O)[C@H](C2CCCCC2)NC1=O [Compound R2169, [mXylyl(1,5)](des-NH2)C-(Cyclo-L)-A-Chg-CR-Tbg-NH2] ([Mpa][Ac5c]A[Chg]CR[Tle]-NH2; linker 1-5 via mXylylene) | 1.9
CC(C)(C)[C@H](NC(=O)[C@H](CCCNC(=N)N)NC(=O)[C@@H]1CSCc2cccc(c2)CSCCC(=O)N2CCC[C@H]2C(=O)NC(C2CCc3ccccc3C2)C(=O)N1)C(N)=O (stereo partly drawn) [Compound R2266] ([Mpa]P[X1]CR[Tle]-NH2; linker 1-4 via mXylylene) | 118
C[C@@H]1NC(=O)C(C)(C)NC(=O)CCSCc2cccc(c2)CSC[C@@H](C(=O)N[C@@H](CCCNC(=N)N)C(=O)O)NC(=O)[C@H](C2CCCCC2)NC1=O [Compound R2153, [mXylyl(1,5)](des-NH2)C-Aib-A-Chg-CR-OH] ([Mpa][Aib]A[Chg]CR-OH; linker 1-5 via mXylylene) | > 8880
CC(=O)N[C@@H](CS)C(=O)N[C@@H](CC(N)=O)C(=O)N[C@@H](Cc1ccc(O)cc1)C(=O)N(C)[C@@H](Cc1c[nH]c2ccccc12)C(=O)N[C@@H](CO)C(=O)N1CCC[C@H]1C(=O)N[C@@H](Cc1c[nH]c2ccccc12)C(=O)N[C@H](C(=O)N[C@@H](C)C(=O)N[C@@H](CS)C(N)=O)[C@@H](C)O [Compound R2238, Ac-CNY-nMeW-SPWTAC-NH2] (Ac-CNY[NMeW]SPWTAC-NH2) | > 4520
CC(C)(C)[C@H](NC(=O)[C@H](CCCNC(=N)N)NC(=O)[C@@H]1CCCn2cc(nn2)CCCCCC(=O)N2CCC[C@H]2C(=O)N[C@@H](C2CCCCC2)C(=O)N1)C(N)=O [Compound R2250] | > 100000
CCCC[C@@H]1NC(=O)[C@@H](NC(C)=O)CSCc2cccc(c2)CSC[C@@H](C(=O)N[C@@H](CCCNC(=N)N)C(=O)N[C@H](C(N)=O)C(C)(C)C)NC(=O)[C@H](c2ccccc2)NC(=O)[C@H](CO)NC1=O [Compound R2065, [mXylyl(1,5)]Ac-C-Nle-S-Phg-CR-Tbg-NH2] (Ac-C[Nle]S[Phg]CR[Tle]-NH2; linker 1-5 via mXylylene) | 6.1
CC(=O)N[C@@H](CS)C(=O)N[C@@H](CC(N)=O)C(=O)N[C@@H](Cc1ccc(O)cc1)C(=O)N[C@@H](Cc1c[nH]c2ccccc12)C(=O)N[C@@H](CO)C(=O)N1CCC[C@H]1C(=O)N(C)[C@@H](Cc1c[nH]c2ccccc12)C(=O)N[C@H](C(=O)N[C@@H](C)C(=O)N[C@@H](CS)C(N)=O)[C@@H](C)O [Compound R2236, Ac-CNYWSP-nMeW-TAC-NH2] (Ac-CNYWSP[NMeW]TAC-NH2) | > 4900
C[C@@H]1NC(=O)C2(CCOCC2)NC(=O)CCSCc2cccc(c2)CSC[C@@H](C(=O)N[C@@H](Cc2c[nH]c3ncccc23)C(=O)N[C@H](C(N)=O)C(C)(C)C)NC(=O)[C@H](C2CCCCC2)NC1=O [Compound R2147, [mXylyl(1,5)](des-NH2)C-AcPyr-A-Chg-C-AzaTrp-Tbg-NH2] ([Mpa][Thp]A[Chg]C[Trp(7-aza)][Tle]-NH2; linker 1-5 via mXylylene) | > 2190
CC(C)(C)[C@H](NC(=O)[C@H](CCCNC(=N)N)NC(=O)[C@@H]1CSCc2cccc(c2)CSCCC(=O)N2CCC[C@H]2C(=O)N[C@@H](c2ccccc2)C(=O)N1)C(N)=O [Compound R2188, [mXylyl(1,4)](des-NH2)C-P-Phg-CR-Tbg-NH2] ([Mpa]P[Phg]CR[Tle]-NH2; linker 1-4 via mXylylene) | 3.4
CC(C)(C)[C@H](NC(=O)[C@H](CCCNC(=N)N)NC(=O)[C@@H]1COc2cccc(c2)OCCCC(=O)N2CCC[C@H]2C(=O)N[C@@H](C2CCCCC2)C(=O)N1)C(N)=O [Compound R2255] | > 25000
CC(C)(C)[C@H](NC(=O)[C@H](CCCNC(=N)N)NC(=O)[C@@H]1CCc2cn(nn2)CCCCCC(=O)N2CCC[C@H]2C(=O)N[C@@H](C2CCCCC2)C(=O)N1)C(N)=O [Compound R2254] | > 100000
CC(=O)N[C@@H](CS)C(=O)N[C@@H](CC(N)=O)C(=O)N[C@@H](Cc1ccc(O)cc1)C(=O)N[C@@H](Cc1c[nH]c2ccccc12)C(=O)N(C)[C@@H](CO)C(=O)N1CCC[C@H]1C(=O)N[C@@H](Cc1c[nH]c2ccccc12)C(=O)N[C@H](C(=O)N[C@@H](C)C(=O)N[C@@H](CS)C(N)=O)[C@@H](C)O [Compound R2237, Ac-CNYW-nMeS-PWTAC-NH2] (Ac-CNYW[NMeS]PWTAC-NH2) | > 13900
